Experiments:
Type in all cases: in vivo, rat
Male Sprague-Dawley rats [1] = experiment: Hot water tail-flick test, morphine withdrawal-induced thermal hyperalgesia
Method: (§1) Male Sprague-Dawley rats (175-200 grams, Harlan, Indianapolis, Ind.) were divided into two groups (n=8 per group). Rats received subcutaneous injections of either saline or morphine (10 mg/kg; Sigma, St. Louis, Mo.) twice daily at 0800 to 0900 and 1600-1700 hour for 5 days in order to induce opioid tolerance. Chronic morphine withdrawal-induced hyperalgesia and allodynia were assessed in the animals 16 hours after the last injection of morphine. Following the recording of morphine withdrawal-induced hyperalgesia and allodynia, animals were treated with morphine (5 microgram) acutely via lumbar intrathecal injection to study the expression of morphine tolerance. Acute analgesic activity or intrathecal morphine in morphine-tolerant and chronic aline-treated rats were evaluated by mechanical (Analgesy-Meter) and thermal (tail-flick) test paradigms. Behaviors recorded prior to the acute administration of intrathecal morphine served as the basal latency measures.
(§2) With an understanding of the effects of morphine alone, separate groups of rats (n=8) received with saline or morphine (10 mg/kg subcutaneously, twice daily for 5 days) and also received once daily injections (at 1100 to 1200 hour) of propentofylline (1 and 10 micrograms) or saline via direct lumbar puncture during the induction of morphine tolerance. Again, chronic morphine withdrawal-induced hyperalgesia and allodynia were assessed in the animals 16 hours after the last subcutaneous morphine injection. Following the recording of morphine withdrawal-induced hyperalgesia and allodynia, animals were treated with morphine (5 micrograms) acutely via lumbar puncture to study the expression of morphine tolerance. As before, the acute analgesic activity of intrathecal morphine in morphine-tolerant and saline-injected rats was evaluated by mechanical (Analgesy-Meter) and thermal (tail-flick) test paradigms. Behavior recorded prior to the acute administration of intrathecal morphine served as the basal latency.
Thermal nociceptive thresholds were evaluated by the hot water tail-flick test that has been described previously (Bian, D. et al. 1999. Brain Res. 831:55-63). The test consisted of immersing the tail of the rats in water maintained at 49° C. and then recording the latency to a rapid flick. A 15 second cut-off time was used. Again, the total number of responses elicited during three successive trials separated by at least 10 minutes was recorded and then expressed as the % maximal possible effect. The tester was again blinded to the test groups.

Male Sprague-Dawley rats [2] = experiment: Paw pressure test (Analgesy-Meter), morphine withdrawal-induced mechanical hyperalgesia
Method: as §1, §2
(§3) In blinded testing, rats were subjected to sequential series of 10 tactile stimulations to the dorsal surface of the ipsilateral hindpaw using […] von Frey filaments (Stoelting Co., WoodDale, Ill.) sequentially. The number of foot withdrawals to this normally non-noxious stimulus determined mechanical allodynia. Mechanical sensitivity was assessed by recording the total number of responses elicited during three successive trials separated by at least 10 minutes. The pressure required to elicit paw withdrawal, the paw pressure threshold was determined.

Male Sprague-Dawley rats [3] = experiment: Mechanical allodynia (von Frey filaments), morphine withdrawal
Method: as §1, §2
Mechanical sensitivity was measured as the frequency of foot withdrawals elicited by a defined mechanical stimulus. Each rat, under unrestrained conditions, was placed beneath an inverted, ventilated Plexiglas cage upon an elevated aluminum screen surface with 1 cm mesh openings. Animals had been previously acclimated to the environment and the experimenter.
as §3

Male Sprague-Dawley rats [4] = experiment: Morphine tolerance model, acute intrathecal morphine evaluated by thermal and mechanical test paradigms; details: chronic subcutaneous morphine 10 mg/kg twice daily for 5 days; noxious thermal and mechanical testing paradigms
Method: as §1
as §2, with “Following the recording of morphine withdrawal-induced hyperalgesia and allodynia, animals were treated with morphine (5 micrograms) acutely via lumbar puncture to study the expression of morphine tolerance.” left out
as §3
Thermal nociceptive thresholds were evaluated by the hot water tail-flick test that has been described previously (Bian, D. et al. 1999. Brain Res. 831:55-63). […] Again, the total number of responses elicited during three successive trials separated by at least 10 minutes was recorded and then expressed as the % maximal possible effect. […]

Mac-1 mRNA = experiment: Real-time PCR of Mac-1 mRNA at L5 lumbar spinal cord; details: compared to saline-treated controls; morphine 10 mg/kg twice daily 5 days, or propentofylline 10 micrograms intrathecally 5 days in saline-treated rats
Method: (§4) Total RNA was treated with DNase I (Ambion, Austin, Tex.) to remove DNA contamination before cDNA synthesis. The reverse transcription (RT) was carried out in a 100 μl total reaction volume containing RT buffer, dNTPs, multiscribe reverse transcriptase, RNase-free water and 10 μg of DNase-treated total RNA. The RT reaction was carried out at 25° C. for 10 minutes, 37° C. for 120 minutes, and 95° C. for 5 minutes. Real-time PCR analysis was performed using gene-specific primers and probes that were designed and blasted against GENBANK to confirm their species and gene specificity. […] The real-time PCR reactions were carried out using Platinum Taq DNA polymerase, 20 mM Tris HCl (pH 8.4), 50 mM KCl, 3 mM MgCl2, 200 μM dGTP, dCTP, and dATP, 400 μM of dUTP and 1 U uracyl DNA glycosylase (UDG), 900 nM forward and reverse primers, 300 nM TaqMan probe, and 10-fold dilution of cDNA (50 ng) from the RT step. Primers and probes for glyceraldehyde-3-phosphate (GADPH), GFAP and Mac-1 were obtained form Applied Biosystems (LaJolla, Calif.). The relative standard curves generated by plotting the threshold value versus the log of the amount of total cDNA added to the reaction (1-10000 pg) were used to compare the relative amount of target genes from control and chronic morphine-treated animals.

GFAP mRNA = experiment: Real-time PCR of GFAP mRNA at L5 lumbar spinal cord; details: compared to saline-treated controls; morphine 10 mg/kg twice daily 5 days, or propentofylline 10 micrograms intrathecally 5 days in saline-treated rats
Method: as §4

IL-1β mRNA = experiment: RNase protection assay, cytokine mRNA at L5 lumbar spinal cord; details: ratio of expression compared with saline-treated animals (=1), propentofylline 10 μg intrathecally 5 days, morphine 10 mg/kg twice daily 5 days
Method: (§6) After behavioral testing for reactions to the combined treatment, rats were sacrificed and decapitated. An 18-gauge needle was inserted into the caudal end of the vertebral column and the spinal cord was expelled with ice-cold phosphate-buffered saline. The spinal cord was frozen immediately on dry ice and stored at −80° C. until homogenization. The L5 lumbar spinal cord was isolated from the intact frozen cord at the time of mRNA and protein quantification. Total RNA was isolated from the L5 spinal cord by the TRIzol extraction method (Invitrogen Corporation, Carlsbad, Calif).
(§7) Assessment of the temporal cytokine mRNA expression in the L5 lumber spinal cord was performed using a Ribonuclease Protection Assay technique. A Multiprobe RPAse kit was used (Pharmingen, San Diego, Calif.). Total RNA (15 μg) was hybridized to ^32P-labeled antisense RNA probes transcribed using the rat cytokine-1 (rCK-1) multiprobe template set resulting in double-stranded target RNA. After Rnase digestion, protected RNA and probe were resolved on a denaturing polyacrylamide gel and visualized by overnight autoradiography. Quantitative image analysis was employed to compare mRNA levels based on band intensities for each cytokine. The intensity of each band was measured using image analysis software and assigned an arbitrary unit based on the measured intensity levels. The value for the normalized quantity for each band was obtained by dividing by the L32 house-keeping gene control. Individual mRNA concentration was calculated as the ratio of the expression compared with saline-treated animals in which normal values were weighted as 1.

IL-6 mRNA = experiment: as above; details: ratio of expression compared with saline-treated animals (=1), propentofylline 10 μg intrathecally 5 days, morphine 10 mg/kg twice daily 5 days
Method: as §6, §7

IL-1β protein = experiment: Cytokine protein estimation by ELISA at L5 spinal cord; details: ELISA, propentofylline 10 μg intrathecally 5 days, morphine 10 mg/kg twice daily 5 days
Method: (§5) Quantitative determination of IL-1β, TNF-α and IL-6 protein was performed on the L5 spinal cord of the rats. […] Briefly, weighed sections of L5 spinal cord were homogenized in a homogenization buffer consisting of a protease inhibitor using the a Power Gen 125 tissue tearer (Fisher Scientific, Suwanee, Ga.). Samples were spun at 20,000×g for 30 minutes at 4° C. Supernatant was aliquoted and stored at −80° C. for future protein quantification. IL-1β and TNF-α (R&D Systems, Minneapolis, Minn.) and IL-6 (Biosource, Camarillo, Calif.) protein concentrations were determined utilizing the quantitative sandwich enzyme immunoassay.

IL-6 protein = experiment: as above; details: ELISA, propentofylline 10 μg intrathecally 5 days, morphine 10 mg/kg twice daily 5 days
Method: as §5

TNF-α protein = experiment: as above; details: ELISA, propentofylline 10 μg intrathecally 5 days, morphine 10 mg/kg twice daily 5 days
Method: as §5

[5] = 16 hours after last injection, morphine 10 mg/kg s.c. twice daily 5 days and/or propentofylline 10 micrograms intrathecally once daily 5 days
[6] = 16 hours after last morphine injection (10 mg/kg s.c. twice daily 5 days), propentofylline 1 and 10 micrograms intrathecally for 5 days during induction of tolerance

## CN1CC[C@]23c4c5ccc(O)c4O[C@H]2[C@@H](O)C=C[C@H]3[C@H]1C5 [morphine]
Male Sprague-Dawley rats [1]; [5]
  Tail-flick latency: 3.7 ± 0.2 s
Male Sprague-Dawley rats [1]; [6]
  morphine withdrawal-induced noxious thermal hyperalgesia: led to withdrawal-induced thermal and mechanical hyperalgesia
Male Sprague-Dawley rats [2]; [5]
  Paw pressure latency: 69.8 ± 4.8 grams
Male Sprague-Dawley rats [2]; [6]
  morphine withdrawal-induced mechanical hyperalgesia: led to withdrawal-induced thermal and mechanical hyperalgesia
Male Sprague-Dawley rats [3]; [6]
  morphine withdrawal-induced mechanical allodynia: led to withdrawal-induced thermal and mechanical hyperalgesia and mechanical allodynia
Male Sprague-Dawley rats [3]; number of foot withdrawals, 2 grams von Frey filament, morphine 10 mg/kg s.c. twice daily 5 days and/or propentofylline 10 micrograms intrathecally
  Mechanical allodynia (2 grams): 3.9 ± 0.5
Male Sprague-Dawley rats [3]; number of foot withdrawals, 12 grams von Frey filament, morphine 10 mg/kg s.c. twice daily 5 days and/or propentofylline 10 micrograms intrathecally
  Mechanical allodynia (12 grams): 6.9 ± 0.7
Male Sprague-Dawley rats [4]
  anti-nociceptive tolerance to acute intrathecal morphine (5 micrograms): demonstrated anti-nociceptive tolerance
Mac-1 mRNA
  Mac-1 mRNA levels at the L5 lumbar spinal cord: significant increases
GFAP mRNA
  GFAP mRNA levels at the L5 lumbar spinal cord: significant increases
IL-1β mRNA
  IL-1β mRNA at the L5 lumbar spinal cord: significantly increased
IL-1β mRNA; listed as Morphine
  IL-1β mRNA at the L5 lumbar spinal cord: 1.92 ± 0.14
IL-6 mRNA
  IL-6 mRNA at the L5 lumbar spinal cord: significantly increased
IL-6 mRNA; listed as Morphine
  IL-6 mRNA at the L5 lumbar spinal cord: 1.85 ± 0.16
IL-1β protein
  IL-1β protein level at the L5 lumbar spinal cord: significantly increased
IL-1β protein; listed as Morphine
  IL-1β protein level at the L5 lumbar spinal cord: 73.5 ± 9.2
IL-6 protein
  IL-6 protein level at the L5 lumbar spinal cord: significantly increased
IL-6 protein; listed as Morphine
  IL-6 protein level at the L5 lumbar spinal cord: 359 ± 62.4
TNF-α protein
  TNF-α protein level at the L5 lumbar spinal cord: not significantly increased
TNF-α protein; listed as Morphine
  TNF-α protein level at the L5 lumbar spinal cord: 36.6 ± 5.6
